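Step 1: Grow cells in 96-well plates. Step 2: Expose to compound for 48 hours at 5 concentrations. Step 3: Interpolate endpoints linearly; if unreached, use highest concentration. GI50: concentration for 50% inhibition of growth. Definition used: TGI = concentration required for complete inhibition of growth.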
Tests used:
Test in all cases: NCI tumour cell line growth inhibition, 48 h
[1] = system: 786-0 renal
[2] = system: MOLT-4 leukemia
[3] = system: T-47D breast
[4] = system: NCI-H522 lung
[5] = system: KM12 colon
[6] = system: RPMI-8226 leukemia
[7] = system: SF-539 CNS
[8] = system: COLO 205 colon
[9] = system: ACHN renal
[10] = system: HCT-15 colon
[11] = system: SNB-75 CNS
[12] = system: MCF7 breast
[13] = system: SK-MEL-2 melanoma
[14] = system: SF-268 CNS
[15] = system: UACC-62 melanoma
[16] = system: OVCAR-3 ovarian
[17] = system: K-562 leukemia
[18] = system: HOP-92 NSCLC
[19] = system: CAKI-1 renal
[20] = system: OVCAR-5 ovarian
[21] = system: SN12C renal
[22] = system: PC-3 prostate
[23] = system: NCI-H226 lung
[24] = system: NCI-H23 lung
[25] = system: HOP-62 NSCLC
[26] = system: LOX IMVI melanoma
[27] = system: HT29 colon
[28] = system: SF-295 CNS
[29] = system: BT-549 breast
[30] = system: A498 renal
[31] = system: HCT-116 colon
[32] = system: CCRF-CEM leukemia
[33] = system: HL-60(TB) leukemia
[34] = system: IGROV1 ovarian
[35] = system: RXF 393 renal
[36] = system: MDA-MB-231 breast
[37] = system: A549 NSCLC
[38] = system: NCI-H460 lung
[39] = system: OVCAR-4 ovarian
[40] = system: SNB-19 CNS
[41] = system: SW-620 colon
[42] = system: NCI/ADR-RES ovarian
[43] = system: DU-145 prostate
[44] = system: MALME-3M melanoma
[45] = system: SK-MEL-28 melanoma
[46] = system: TK-10 renal
[47] = system: OVCAR-8 ovarian
[48] = system: M14 melanoma
[49] = system: UACC-257 melanoma
[50] = system: SK-OV-3 ovarian
[51] = system: HS 578T breast
[52] = system: EKVX NSCLC
[53] = system: SK-MEL-5 melanoma
[54] = system: HCC-2998 colon
[55] = system: UO-31 renal
[56] = system: U251 CNS
[57] = system: MDA-MB-435

COc1cc(/C=C/C(=O)c2cccc(Nc3nc(Nc4ccccc4)nc(Nc4ccccc4)n3)c2)cc(OC)c1OC
GI50 [1]: 7.66 µM
TGI [1]: 43.2 µM
GI50 [2]: 1.07 µM
TGI [2]: 4.38 µM
GI50 [3]: 1.98 µM
TGI [3]: > 59 µM
GI50 [4]: 5.11 µM
TGI [4]: > 100 µM
GI50 [5]: 3.71 µM
TGI [5]: > 87.9 µM
GI50 [6]: 0.53 µM
TGI [6]: 4.58 µM
GI50 [7]: 12 µM
TGI [7]: 34 µM
GI50 [8]: 4.77 µM
TGI [8]: 30.7 µM
GI50 [9]: 24.1 µM
TGI [9]: > 100 µM
GI50 [10]: 4.57 µM
TGI [10]: > 100 µM
GI50 [11]: 16 µM
TGI [11]: > 100 µM
GI50 [12]: 0.588 µM
TGI [12]: > 54.1 µM
GI50 [13]: 7.78 µM
TGI [13]: > 65.4 µM
GI50 [14]: 13.8 µM
TGI [14]: > 100 µM
GI50 [15]: 43.8 µM
TGI [15]: > 100 µM
GI50 [16]: 4.49 µM
TGI [16]: 56 µM
GI50 [17]: 1.37 µM
TGI [17]: > 38.8 µM
GI50 [18]: 1.36 µM
TGI [18]: > 31.2 µM
TGI [19]: > 26.2 µM
GI50 [20]: 38.4 µM
TGI [20]: > 100 µM
GI50 [21]: 20.7 µM
TGI [21]: > 100 µM
GI50 [22]: 2.19 µM
TGI [22]: > 100 µM
GI50 [23]: 17.2 µM
TGI [23]: > 81 µM
GI50 [24]: 6.07 µM
TGI [24]: > 100 µM
GI50 [25]: 23.5 µM
TGI [25]: > 94.5 µM
GI50 [26]: 6.32 µM
TGI [26]: > 45.1 µM
GI50 [27]: 6.41 µM
TGI [27]: > 100 µM
GI50 [28]: 2.58 µM
GI50 [29]: 8.36 µM
TGI [29]: > 100 µM
GI50 [30]: 7.47 µM
TGI [30]: > 49.9 µM
GI50 [31]: 2.68 µM
TGI [31]: > 66.6 µM
GI50 [32]: 0.904 µM
TGI [32]: 5.67 µM
GI50 [33]: 1.33 µM
TGI [33]: 4.1 µM
GI50 [34]: 3.22 µM
TGI [34]: > 100 µM
GI50 [35]: 1.6 µM
TGI [35]: 11.1 µM
GI50 [36]: 11.7 µM
TGI [36]: > 100 µM
GI50 [37]: 36.6 µM
TGI [37]: > 100 µM
GI50 [38]: 2.05 µM
TGI [38]: 20.9 µM
GI50 [39]: 33.9 µM
TGI [39]: > 100 µM
GI50 [40]: 10.1 µM
TGI [40]: > 100 µM
GI50 [41]: 3.73 µM
TGI [41]: > 100 µM
GI50 [42]: 3.82 µM
TGI [42]: > 100 µM
GI50 [43]: 5.91 µM
TGI [43]: > 100 µM
GI50 [44]: 18.2 µM
TGI [44]: 79.3 µM
GI50 [45]: 4.02 µM
TGI [45]: 19.6 µM
GI50 [46]: 63.9 µM
TGI [46]: > 100 µM
GI50 [47]: 0.988 µM
TGI [47]: > 100 µM
GI50 [48]: 24.1 µM
TGI [48]: > 100 µM
GI50 [49]: 25 µM
TGI [49]: > 100 µM
GI50 [50]: 43.1 µM
TGI [50]: > 100 µM
GI50 [51]: 4.83 µM
TGI [51]: > 54.4 µM
GI50 [52]: 9.94 µM
TGI [52]: > 100 µM
GI50 [53]: 2.7 µM
TGI [53]: 23.8 µM
GI50 [54]: 5.5 µM
TGI [54]: 53.1 µM
GI50 [55]: 5.15 µM
TGI [55]: > 100 µM
GI50 [56]: 11.4 µM
TGI [56]: > 100 µM
GI50 [57]: 7.67 µM
TGI [57]: > 73.4 µM

Reference: PubChem BioAssay (NCI)
